Reference: the supplement of paper PMC4862054

Key:
Test in all cases: normalised viability (% of control), CellTiter-Blue; higher = more viable cells (about 100 = DMSO control)
Conditions in all cases: incubation time: 72 h
MDA-MB-453 = test system: MDA-MB-453
Description: (§1)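 DSRT, CellTiter-Blue viability, 72 h incubation. Signal is normalised to DMSO and benzethonium chloride controls. Value is the normalised response at dose 8.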

CAL-148 = test system: CAL-148
Description: as §1

CAL-85-1 = test system: CAL-85-1
Description: as §1

HDQ-P1 = test system: HDQ-P1
Description: as §1

DU-4475 = test system: DU-4475
Description: as §1

CAL-51 = test system: CAL-51
Description: as §1

Row | Compound | normalised viability (MDA-MB-453) [%] | normalised viability (CAL-148) [%] | normalised viability (CAL-85-1) [%] | normalised viability (HDQ-P1) [%] | normalised viability (DU-4475) [%] | normalised viability (CAL-51) [%]
1 | COc1ccc(S(=O)(=O)Nc2cccnc2Nc2ccc(O)cc2)cc1 [ABT-751] (3000 nM) | 27.7 | 15 | 26.8 | 37.8 | 17.4 | 19
2 | Cc1cc(Nc2nc(N[C@@H](C)c3ncc(F)cn3)ncc2Cl)[nH]n1 [AZD1480] (300 nM) | 94.2 | 106 | 106 | 122 | 89.3 | 98.8
3 | CNC(=O)c1ccccc1Sc1ccc2c(/C=C/c3ccccn3)n[nH]c2c1 [Axitinib] (3000 nM) | 55.4 | 46 | 65.5 | 64.8 | 33.9 | 40.2
4 | CC(O)(CS(=O)(=O)c1ccc(F)cc1)C(=O)Nc1ccc(C#N)c(C(F)(F)F)c1 (centres undefined) [Bicalutamide] (3000 nM) | 114 | 103 | 101 | 96.8 | 103 | 120
5 | CCNC(=O)CCC/C=C\C[C@@H]1[C@@H](/C=C/[C@@H](O)CCc2ccccc2)[C@H](O)C[C@@H]1O [Bimatoprost] (1650 nM) | 92.4 | 91.1 | 102 | 97.4 | 120 | 111
6 | COc1cc(Nc2c(C#N)cnc3cc(OCCCN4CCN(C)CC4)c(OC)cc23)c(Cl)cc1Cl [Bosutinib] (3000 nM) | 50.1 | 39.8 | 54.3 | 44.2 | 98.6 | 80.3
7 | CCN(CC)CCCC(C)Nc1ccnc2cc(Cl)ccc12 (centres undefined) [Chloroquine] (297 nM) | 100 | 95.9 | 96 | 118 | 85.2 | 93.4
8 | Cn1cc(C2=C(c3cn(C4CCN(Cc5ccccn5)CC4)c4ccccc34)C(=O)NC2=O)c2ccccc21 [Enzastaurin] (3000 nM) | 53.6 | 69 | 85 | 89.8 | 87.3 | 88.6
9 | CC(C)(C)NC(=O)[C@H]1CC[C@H]2[C@@H]3CC[C@H]4NC(=O)C=C[C@]4(C)[C@H]3CC[C@]12C [Finasteride] (3000 nM) | 114 | 96.4 | 92.2 | 127 | 97 | 104
10 | Nc1ccn([C@@H]2O[C@H](CO)[C@@H](O)C2(F)F)c(=O)n1 [Gemcitabine] (300 nM) | 44.1 | 34.9 | 43.2 | 82.1 | 39.8 | 15.7
11 | CC(C)C[C@H](NC(=O)[C@@H](COC(C)(C)C)NC(=O)[C@H](Cc1ccc(O)cc1)NC(=O)[C@H](CO)NC(=O)[C@H](Cc1c[nH]c2ccccc12)NC(=O)[C@H](Cc1cnc[nH]1)NC(=O)[C@@H]1CCC(=O)N1)C(=O)N[C@@H](CCCNC(=N)N)C(=O)N1CCC[C@H]1C(=O)NNC(N)=O [Goserelin] (3000 nM) | 122 | 99.8 | 103 | 106 | 92.5 | 108
12 | CC(=O)[C@]1(O)Cc2c(O)c3c(c(O)c2[C@@H](O[C@H]2C[C@H](N)[C@H](O)[C@H](C)O2)C1)C(=O)c1ccccc1C3=O [Idarubicin] (300 nM) | 68.7 | 7.71 | 47.1 | 48.7 | 7.47 | 20.9
13 | C/C(=C\c1csc(C)n1)[C@@H]1C[C@@H]2O[C@]2(C)CCC[C@H](C)[C@H](O)[C@@H](C)C(=O)C(C)(C)[C@@H](O)CC(=O)N1 [Ixabepilone] (300 nM) | 89.8 | 87.3 | 76.5 | 81.6 | 92.9 | 117
14 | C=CCn1c(=O)c2cnc(Nc3ccc(N4CCN(C)CC4)cc3)nc2n1-c1cccc(C(C)(C)O)n1 [MK1775] (3000 nM) | 19.3 | 6.03 | 19.2 | 27.3 | 2.03 | 7.19
